# Starred links: 1 amine or outer side, 2 acyl side, 3 side chain; linkers in the order of their positions; H or OH if unused. Non-standard residues stand in square brackets, D forms with d. Residues, ends and D or L forms follow the SMILES beside them. *: point of attachment. hPhe = N[C@@H](CCc1ccccc1)C(=O)O; Morpholide = C1CN(*)CCO1; CO = O=C([*:1])[*:2]; CH2F = FC*
# Key:
# [1] = system: Seltzer model of chronic neuropathic pain; assay: Established mechanical hyperalgesia in the Seltzer model of chronic neuropathic pain, single oral dose; assay type: in vivo, Wistar rats; parameters: effect on established mechanical hyperalgesia: unit not given here
# [2] = target: T1, cathepsin S (Homo sapiens, UniProt P25774); assay: Cathepsin S inhibitory activity (stated in words); assay type: biochemical
# [3] = target: T2, cathepsin K (Homo sapiens, UniProt P43235); assay: Cathepsin K inhibitory activity (stated in words); assay type: biochemical
# T2 sequence (P43235 115-329): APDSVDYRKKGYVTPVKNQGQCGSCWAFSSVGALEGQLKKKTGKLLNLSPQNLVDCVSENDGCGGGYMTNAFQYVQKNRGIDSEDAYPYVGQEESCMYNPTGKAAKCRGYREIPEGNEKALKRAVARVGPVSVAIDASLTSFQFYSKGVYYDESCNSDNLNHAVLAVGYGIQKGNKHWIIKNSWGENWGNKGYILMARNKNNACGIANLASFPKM
# [4] = system: CCI model of chronic neuropathic pain; assay: Established mechanical hyperalgesia in the CCI model of chronic neuropathic pain, single oral dose (paw withdrawal threshold); assay type: in vivo, Wistar rats; conditions: for % Reversal of Predose Hyperalgesia: CCI model day 14
# Text: In the Chronic Constriction Injury (CCl) model (Bennett, G. J. and Xie, Y. K. Pain (1988) 33: 87-107) rats are anaesthetised and a small incision is made mid-way up one thigh (usually the left) to expose the sciatic nerve. The nerve is cleared of surrounding connective tissue and four ligatures of 4/0 chromic gut are tied loosely around the nerve with approximately 1 mm between each, so that the ligatures just barely constrict the surface of the nerve. The wound is closed with sutures and clips as described above. In sham animals the sciatic nerve is exposed but not ligated and the wound closed as in nonsham animals. In all chronic pain models (inflammatory and neuropathic) mechanical hyperalgesia is assessed by measuring paw withdrawal thresholds of both hindpaws to an increasing pressure stimulus using an Analgesymeter (Ugo-Basile, Milan). Mechanical allodynia is assessed by measuring withdrawal thresholds to non-noxious mechanical stimuli applied with von Frey hairs to the plantar surface of both hindpaws. Thermal hyperalgesia is assessed by measuring withdrawal latencies to a noxious thermal stimulus applied to the underside of each hindpaw. With all models, mechanical hyperalgesia and allodynia and thermal hyperalgesia develop within 1-3 days following surgery and persist for at least 50 days. For the assays described herein, drugs may be applied before and after surgery to assess their effect on the development of hyperalgesia, particularly approximately 14 days following surgery, to determine their ability to reverse established hyperalgesia. The percentage reversal of hyperalgesia is calculated as follows: [formula] In the experiments disclosed herein, Wistar rats (male) are employed in the pain models described above. Rats weigh approximately 120-140 grams at the time of surgery. All surgery is performed under enflurane/O2 inhalation anaesthesia. In all cases the wound is closed after the procedure and the animal allowed to recover. In all pain models employed, after a few days in all but the sham operated animals, a marked mechanical and thermal hyperalgesia and allodynia develops in which there is a lowering of pain threshold and an enhanced reflex withdrawal response of the hind-paw to touch, pressure or thermal stimuli. […] In the majority of animals the toes of the affected hind paw are held together and the foot turned slightly to one side; in some rats the toes are also curled under. The gait of the ligated rats varies, but limping is uncommon. […] The rats tend to be very sensitive to touch and may vocalise. Otherwise the general health an condition of the rats is good. Rats are subjected to the surgical procedures according to the CCl chronic pain model described above. Paw withdrawal thresholds are measured prior to surgery, 14 days later when hyperalgesia is established and then at 1, 3 and 6 hours following a single oral gavage dose of compound B. Results are provided in Table 2, below. Each time point represents data from 6 animals per group. Vehicle control: PEG/methyl cellulose (0.5%)+Tween 80 (0.25%)(20:80), 1 ml p.o.
# [5] = system: CCI model of chronic neuropathic pain; assay: Mechanical hyperalgesia in the CCI model, twice daily oral dosing throughout development of hyperalgesia; assay type: in vivo, Wistar rats
# Text: In the Chronic Constriction Injury (CCl) model (Bennett, G. J. and Xie, Y. K. Pain (1988) 33: 87-107) rats are anaesthetised and a small incision is made mid-way up one thigh (usually the left) to expose the sciatic nerve. The nerve is cleared of surrounding connective tissue and four ligatures of 4/0 chromic gut are tied loosely around the nerve with approximately 1 mm between each, so that the ligatures just barely constrict the surface of the nerve. The wound is closed with sutures and clips as described above. In sham animals the sciatic nerve is exposed but not ligated and the wound closed as in nonsham animals. In all chronic pain models (inflammatory and neuropathic) mechanical hyperalgesia is assessed by measuring paw withdrawal thresholds of both hindpaws to an increasing pressure stimulus using an Analgesymeter (Ugo-Basile, Milan). Mechanical allodynia is assessed by measuring withdrawal thresholds to non-noxious mechanical stimuli applied with von Frey hairs to the plantar surface of both hindpaws. Thermal hyperalgesia is assessed by measuring withdrawal latencies to a noxious thermal stimulus applied to the underside of each hindpaw. With all models, mechanical hyperalgesia and allodynia and thermal hyperalgesia develop within 1-3 days following surgery and persist for at least 50 days. For the assays described herein, drugs may be applied before and after surgery to assess their effect on the development of hyperalgesia, particularly approximately 14 days following surgery, to determine their ability to reverse established hyperalgesia. In the experiments disclosed herein, Wistar rats (male) are employed in the pain models described above. Rats weigh approximately 120-140 grams at the time of surgery. All surgery is performed under enflurane/O2 inhalation anaesthesia. In all cases the wound is closed after the procedure and the animal allowed to recover. In all pain models employed, after a few days in all but the sham operated animals, a marked mechanical and thermal hyperalgesia and allodynia develops in which there is a lowering of pain threshold and an enhanced reflex withdrawal response of the hind-paw to touch, pressure or thermal stimuli. […] In the majority of animals the toes of the affected hind paw are held together and the foot turned slightly to one side; in some rats the toes are also curled under. The gait of the ligated rats varies, but limping is uncommon. […] The rats tend to be very sensitive to touch and may vocalise. Otherwise the general health an condition of the rats is good. Data disclosed herein indicate that compound B can reverse the mechanical hyperalgesia induced in the CCl model of neuropathic pain in a dose dependent manner with a D50 in the range 30-100 mg/kg, with up to 70% reversal at 100 mg/kg at 1 hour post dosing. […] In the twice daily study, paw withdrawal thresholds were measured prior to surgery and then daily 3 hours following the second oral dosing with compound B. The last dose was given on day 13. Each time point in Table 3 represents data from 6 animals per group. Vehicle control: PEG/methyl cellulose (0.5%)+Tween 80 (0.25%)(20:80), 1 ml p.o.
# [6] = system: FCA-induced model of chronic inflammatory pain; assay: Mechanical hyperalgesia in the FCA-induced model of chronic inflammatory pain; assay type: in vivo, rats; conditions: 100 mg/kg p.o., 24 hours after FCA induction, data not shown
# Method: The Complete Freund's Adjuvant-induced mechanical hyperalgesia may be used as a model of chronic inflammatory pain (Stein, C. et al. Pharmacol. Biochem. Behav. (1988) 31:445-451). In this model, typically a male Sprague-Dawley orWistar rat (200-250 g) receives an intraplantar injection of 25 μl complete Freund's adjuvant into one hind paw. A marked inflammation occurs in this hind paw. Drugs are generally administered for evaluation of efficacy, 24 hours after the inflammatory insult, when mechanical hyperalgesia is considered fully established. In all chronic pain models (inflammatory and neuropathic) mechanical hyperalgesia is assessed by measuring paw withdrawal thresholds of both hindpaws to an increasing pressure stimulus using an Analgesymeter (Ugo-Basile, Milan). Mechanical allodynia is assessed by measuring withdrawal thresholds to non-noxious mechanical stimuli applied with von Frey hairs to the plantar surface of both hindpaws. Thermal hyperalgesia is assessed by measuring withdrawal latencies to a noxious thermal stimulus applied to the underside of each hindpaw. With all models, mechanical hyperalgesia and allodynia and thermal hyperalgesia develop within 1-3 days following surgery and persist for at least 50 days. […] The percentage reversal of hyperalgesia is calculated as follows: [formula] […]
# [7] = target: T1, cathepsin S; conditions: per U.S. Pat. No. 4,518,528; cited from earlier work
# T1 sequence (P25774 115-331): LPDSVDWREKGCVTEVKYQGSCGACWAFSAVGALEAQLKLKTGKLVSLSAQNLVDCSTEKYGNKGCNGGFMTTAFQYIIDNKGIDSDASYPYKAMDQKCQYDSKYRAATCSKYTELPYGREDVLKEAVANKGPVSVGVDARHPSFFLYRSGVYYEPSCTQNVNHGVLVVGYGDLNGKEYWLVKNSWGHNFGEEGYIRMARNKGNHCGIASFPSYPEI
structure (smiles),measurement,setting,value
"CC(C)(C)Cn1c(Cc2cccs2)cc2cnc(C#N)nc21 [Compound A, 7-(2,2-Dimethyl-propyl)-6-thiophen-2-ylmethyl-7.H.-pyrrolo[2,3-.d.]pyrimidine-2-carbonitrile]",effect on established mechanical hyperalgesia,"[1]; Cmpd A 3 mg/kg single oral dose, 1 hr",1.32
same,effect on established mechanical hyperalgesia,"[1]; Cmpd A 3 mg/kg single oral dose, 3 hrs",3.64
same,effect on established mechanical hyperalgesia,"[1]; Cmpd A 3 mg/kg single oral dose, 6 hrs",−1.06
same,effect on established mechanical hyperalgesia,"[1]; Cmpd A 10 mg/kg single oral dose, 1 hr",8.63
same,effect on established mechanical hyperalgesia,"[1]; Cmpd A 10 mg/kg single oral dose, 3 hrs",52.94
same,effect on established mechanical hyperalgesia,"[1]; Cmpd A 10 mg/kg single oral dose, 6 hrs",17.63
same,effect on established mechanical hyperalgesia,"[1]; Cmpd A 30 mg/kg single oral dose, 1 hr",31.15
same,effect on established mechanical hyperalgesia,"[1]; Cmpd A 30 mg/kg single oral dose, 3 hrs",68.32
same,effect on established mechanical hyperalgesia,"[1]; Cmpd A 30 mg/kg single oral dose, 6 hrs",23.05
same,D50 for reversal of hyperalgesia,"[1]; Seltzer model, single oral dose",3 to 10 mg/kg
same,cathepsin S inhibitory activity (in words),[2],mixed cathepsin S/K inhibitory activity
same,cathepsin K inhibitory activity (in words),[3],mixed cathepsin S/K inhibitory activity
"O=C(CF)[C@H](CCc1ccccc1)NC(=O)[C@H](Cc1ccccc1)NC(=O)N1CCOCC1 [Compound B, 3-[(4-morpholinylcarbonyl)-phenylalanylamido]-1-fluoro-5-phenyl-2-pentanone] ({Morpholide-CO}-Phe-[hPhe]-CH2F)",% Reversal of Predose Hyperalgesia,"[4]; 10 mg/kg single oral dose, 1 hr post dose",26.16%
same,% Reversal of Predose Hyperalgesia,"[4]; 10 mg/kg single oral dose, 3 hrs post dose",38.19%
same,% Reversal of Predose Hyperalgesia,"[4]; 10 mg/kg single oral dose, 6 hrs post dose",18.29%
same,% Reversal of Predose Hyperalgesia,"[4]; 30 mg/kg single oral dose, 1 hr post dose",40.97%
same,% Reversal of Predose Hyperalgesia,"[4]; 30 mg/kg single oral dose, 3 hrs post dose",38.89%
same,% Reversal of Predose Hyperalgesia,"[4]; 30 mg/kg single oral dose, 6 hrs post dose",13.89%
same,% Reversal of Predose Hyperalgesia,"[4]; 100 mg/kg single oral dose, 1 hr post dose",76.49%
same,% Reversal of Predose Hyperalgesia,"[4]; 100 mg/kg single oral dose, 3 hrs post dose",55.06%
same,% Reversal of Predose Hyperalgesia,"[4]; 100 mg/kg single oral dose, 6 hrs post dose",29.76%
same,reversal of mechanical hyperalgesia,"[4]; CCI model, 100 mg/kg, 1 hour post dosing",up to 70%
same,D50 for reversal of mechanical hyperalgesia,"[4]; CCI model, single oral dose",30 to 100 mg/kg
same,Mean Paw pressure withdrawal threshold,"[5]; 30 mg/kg orally twice daily, day 1 post surgery, 3 hours after second dose",100.00 g
same,Mean Paw pressure withdrawal threshold,"[5]; 30 mg/kg orally twice daily, day 2 post surgery, 3 hours after second dose",70.83 g
same,Mean Paw pressure withdrawal threshold,"[5]; 30 mg/kg orally twice daily, day 3 post surgery, 3 hours after second dose",79.17 g
same,Mean Paw pressure withdrawal threshold,"[5]; 30 mg/kg orally twice daily, day 4 post surgery, 3 hours after second dose",80.00 g
same,Mean Paw pressure withdrawal threshold,"[5]; 30 mg/kg orally twice daily, day 6 post surgery, 3 hours after second dose",80.80 g
same,Mean Paw pressure withdrawal threshold,"[5]; 30 mg/kg orally twice daily, day 8 post surgery, 3 hours after second dose",80.00 g
same,Mean Paw pressure withdrawal threshold,"[5]; 30 mg/kg orally twice daily, day 10 post surgery, 3 hours after second dose",77.50 g
same,Mean Paw pressure withdrawal threshold,"[5]; 30 mg/kg orally twice daily, day 13 post surgery (last dose), 3 hours after second dose",79.17 g
same,reversing mechanical hyperalgesia (in words),"[5]; CCI model, 30 mg/kg orally, twice daily throughout development of hyperalgesia",acutely effective
same,Mean Paw pressure withdrawal threshold,"[5]; day 15 post surgery, after end of 30 mg/kg twice daily treatment (last dose day 13)",60.83 g
same,effect on established mechanical hyperalgesia,"[1]; Cmpd B 30 mg/kg single oral dose, 1 hr",33.47
same,effect on established mechanical hyperalgesia,"[1]; Cmpd B 30 mg/kg single oral dose, 3 hrs",41.57
same,effect on established mechanical hyperalgesia,"[1]; Cmpd B 30 mg/kg single oral dose, 6 hrs",11.97
same,maximal reversal of mechanical hyperalgesia,[6],46%
same,inhibition of cathepsin S in vitro (in words),[7],known to inhibit
